Results from US5268308A, “Immunoassay for pyridostigmine” (priority 1989, dated 1993).
Where “and” joins values, the source holds several entries; their conditions need not be identical. Identical values can stand only once. Like-named read-outs stand apart in the source and are kept apart here.

Assay: Pyridostigmine level in rat sera after intramuscular dose, by RIA
Assay type: in vivo
Settings: for concentration at 5 min / concentration at 10 min / concentration at 0.25 h / concentration at 0.5 h / concentration at 1 h / concentration at 2 h / concentration at 3 h / concentration at 4 h: rat, serum, im
Description: To further validate the RIA and the antibody specificity of the present invention, additional rat studies were conducted. Male rats were housed two per cage at 23° C. with a twelve hour on-off light cycle. The animals were given food and water ad libitum. After sixty days, food was withheld for twelve hours. Then pyridostigmine was administered (1.0 mg. of pyridostigmine bromide in physiologic saline/Kg) intramuscularly to the rats weighing between 450 and 550 grams.
Groups of three animals were sacrificed by using inhalation anesthetic, Fluothane (0.01% thymol, w/w; and 0.00025% ammonia, w/w) Ayerst Laboratories, New York, N.Y. at various times after dosing, namely at 0, 5, 10, 15, 30, 60 minutes and at 2, 3, 4 and 6 hours. Blood was collected via heart puncture, and serum was separated by centrifugation at 2000 xg for 20 minutes. Table 4 gives the pyridostigmine level in the plasma of three male rats for each time interval as determined by the RIA of the present invention.

Structure (SMILES): CN(C)C(=O)Oc1ccc[n+](C)c1 [Pyridostigmine]
- Pyridostigmine in the Rat Sera, Mean ± S.D. (0 min, 1.0 mg/kg pyridostigmine bromide i.m., male rats): 0 ng/mL
- Pyridostigmine in the Rat Sera, individual animals (0 min, 1.0 mg/kg pyridostigmine bromide i.m., male rats #1, #2, #3 in order): 0 ng/mL
- Pyridostigmine in the Rat Sera, individual animals (5 min, 1.0 mg/kg i.m., male rats #1, #2 in order, 1 mg/kg): 550 ng/mL
- Pyridostigmine in the Rat Sera, individual animals (10 min, 1.0 mg/kg i.m., male rats #1, #2 in order, 1 mg/kg): 470 ng/mL
- Pyridostigmine in the Rat Sera, individual animals (15 min, 1.0 mg/kg i.m., male rats #1, #2, #3 in order, 1 mg/kg): 300 ng/mL
- Pyridostigmine in the Rat Sera, individual animals (30 min, 1.0 mg/kg i.m., male rats #1, #2, #3 in order, 1 mg/kg): 220 ng/mL
- Pyridostigmine in the Rat Sera, individual animals (60 min, 1.0 mg/kg i.m., male rats #1, #2, #3 in order, 1 mg/kg): 110 ng/mL
- Pyridostigmine in the Rat Sera, individual animals (2 hr, 1.0 mg/kg i.m., male rats #1, #2, #3 in order, 1 mg/kg, 120 min): 25 ng/mL and 15 ng/mL
- Pyridostigmine in the Rat Sera, individual animals (3 hr, 1.0 mg/kg i.m., male rats #1, #2 in order, 1 mg/kg, 180 min): 14 ng/mL
- Pyridostigmine in the Rat Sera, individual animals (4 hr, 1.0 mg/kg i.m., male rats #1, #2, #3 in order, 1 mg/kg, 240 min): 5 ng/mL and 6.5 ng/mL
- concentration at 5 min (1 mg/kg, 5 min, 1.0 mg/kg i.m., male rats #1, #2 in order, read-out: Pyridostigmine in the Rat Sera, individual animals): 600 ng/mL
- concentration at 5 min (1 mg/kg, 5 min, 1.0 mg/kg i.m., male rats, read-out: Pyridostigmine in the Rat Sera, Mean ± S.D.): 575 ± 35.4 ng/mL
- concentration at 10 min (1 mg/kg, 10 min, 1.0 mg/kg i.m., male rats #1, #2 in order, read-out: Pyridostigmine in the Rat Sera, individual animals): 450 ng/mL
- concentration at 10 min (1 mg/kg, 10 min, 1.0 mg/kg i.m., male rats, read-out: Pyridostigmine in the Rat Sera, Mean ± S.D.): 460 ± 14.1 ng/mL
- concentration at 0.25 h (1 mg/kg, 15 min, 1.0 mg/kg i.m., male rats #1, #2, #3 in order, read-out: Pyridostigmine in the Rat Sera, individual animals): 400 ng/mL
- concentration at 0.25 h (1 mg/kg, 15 min, 1.0 mg/kg i.m., male rats, read-out: Pyridostigmine in the Rat Sera, Mean ± S.D.): 387 ± 80.8 ng/mL
- concentration at 0.5 h (1 mg/kg, 30 min, 1.0 mg/kg i.m., male rats #1, #2, #3 in order, read-out: Pyridostigmine in the Rat Sera, individual animals): 250 ng/mL
- concentration at 0.5 h (1 mg/kg, 30 min, 1.0 mg/kg i.m., male rats, read-out: Pyridostigmine in the Rat Sera, Mean ± S.D.): 290 ± 96.4 ng/mL
- concentration at 1 h (1 mg/kg, 60 min, 1.0 mg/kg i.m., male rats #1, #2, #3 in order, read-out: Pyridostigmine in the Rat Sera, individual animals): 140 ng/mL
- concentration at 1 h (1 mg/kg, 60 min, 1.0 mg/kg i.m., male rats, read-out: Pyridostigmine in the Rat Sera, Mean ± S.D.): 130 ± 17.3 ng/mL
- concentration at 2 h (1 mg/kg, 2 hr, 1.0 mg/kg i.m., male rats #1, #2, #3 in order, read-out: Pyridostigmine in the Rat Sera, individual animals): 24 ng/mL
- concentration at 2 h (1 mg/kg, 2 hr, 1.0 mg/kg i.m., male rats, read-out: Pyridostigmine in the Rat Sera, Mean ± S.D.): 21 ± 5.51 ng/mL
- concentration at 3 h (1 mg/kg, 3 hr, 1.0 mg/kg i.m., male rats #1, #2 in order, read-out: Pyridostigmine in the Rat Sera, individual animals): 12 ng/mL
- concentration at 3 h (1 mg/kg, 3 hr, 1.0 mg/kg i.m., male rats, read-out: Pyridostigmine in the Rat Sera, Mean ± S.D.): 13 ± 1.41 ng/mL
- concentration at 4 h (1 mg/kg, 4 hr, 1.0 mg/kg i.m., male rats #1, #2, #3 in order, read-out: Pyridostigmine in the Rat Sera, individual animals): 7.5 ng/mL
- concentration at 4 h (1 mg/kg, 4 hr, 1.0 mg/kg i.m., male rats, read-out: Pyridostigmine in the Rat Sera, Mean ± S.D.): 6 ± 1.26 ng/mL
